Test systems include HCC-2998 colon; TK-10 renal; HT29 colon; SK-MEL-2 melanoma; SK-MEL-28 melanoma; HCT-15 colon; HS 578T breast; MDA-MB-231 breast; OVCAR-4 ovarian; MOLT-4 leukemia.
Test in all cases: NCI anticancer screen, dose series, 48 h

The structures appear in SMILES notation.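 Dose response: 5 concentrations. Exposure: 48 h. Format: 96-well plates. Endpoint: linear interpolation; highest concentration if not reached. Here, GI50 denotes the concentration required for 50% inhibition of growth. The concentration for full growth arrest is given as TGI.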

Consider `CC1=CC(C)=N/C(=N/S(=O)(=O)c2cc(C)c(Cl)cc2SCc2ccccc2)NN1`, for which the GI50 with HCC-2998 colon, in the assay on TK-10 renal, in the assay with HT29 colon, in the assay with SK-MEL-2 melanoma, in the assay on SK-MEL-28 melanoma and with HCT-15 colon was more than 100 µM in each case. The GI50 in the assay with HS 578T breast was more than 100 µM; in the assay on MDA-MB-231 breast it was more than 100 µM; in the assay with OVCAR-4 ovarian it was 79.1 µM; in the assay with MOLT-4 leukemia it was more than 100 µM. In addition, the TGI in the assay with HCC-2998 colon, in the assay with TK-10 renal, with HT29 colon, in the assay with SK-MEL-2 melanoma, with SK-MEL-28 melanoma and with HCT-15 colon was more than 100 µM throughout. The TGI in the assay with HS 578T breast, in the assay with MDA-MB-231 breast, with OVCAR-4 ovarian and with MOLT-4 leukemia was more than 100 µM in each case.

`Cn1nc(C(F)(F)F)cc1-c1cc(Cl)c(OCc2ccc(Cl)cc2)c(-c2ccc(Cl)c(C(F)(F)F)c2)c1O`: the GI50 in the assay with HCC-2998 colon is 1.4 µM; in the assay on TK-10 renal, 1.66 µM; with HT29 colon it was 1.4 µM; with SK-MEL-2 melanoma it was 0.919 µM; with SK-MEL-28 melanoma, 1.14 µM; in the assay with HCT-15 colon, 0.764 µM. The GI50 in the assay with HS 578T breast was 0.975 µM; with MDA-MB-231 breast, 0.958 µM; with OVCAR-4 ovarian, 1.66 µM; in the assay with MOLT-4 leukemia, 1.01 µM. Moreover, the TGI was 5.45 µM in the assay with HCC-2998 colon; 5.56 µM with TK-10 renal; 5.92 µM in the assay with HT29 colon; 2.34 µM with SK-MEL-2 melanoma; 3.53 µM in the assay on SK-MEL-28 melanoma; 4.4 µM in the assay on HCT-15 colon. In addition, the TGI came out at 2.92 µM in the assay with HS 578T breast, 2.43 µM in the assay on MDA-MB-231 breast, 7.14 µM with OVCAR-4 ovarian and 2.39 µM in the assay on MOLT-4 leukemia.

`CC(NNC(=S)N1CCN(c2ccccn2)CC1)c1nccc2ccccc12` (stereo not given): the TGI with HCC-2998 colon stood at 14.7 µM; in the assay on TK-10 renal it was 16.3 µM; with HT29 colon, 19.1 µM; in the assay with SK-MEL-2 melanoma, 18.3 µM; with SK-MEL-28 melanoma, 18.5 µM; in the assay with HCT-15 colon it was 17.3 µM. In addition, the TGI amounted to 61.6 µM in the assay with HS 578T breast, 16.8 µM in the assay with MDA-MB-231 breast, 19.2 µM in the assay with OVCAR-4 ovarian and 10.3 µM in the assay with MOLT-4 leukemia.

`COc1cc(OC)c(/C=C/C(=O)c2c(OC)cc(OC)cc2OC)c(OC)c1`: the GI50 in the assay with HCC-2998 colon was 1.24 µM; with TK-10 renal, 3.31 µM; in the assay on HT29 colon, 0.381 µM; in the assay on SK-MEL-2 melanoma, 0.984 µM; with SK-MEL-28 melanoma, 0.855 µM; in the assay with HCT-15 colon, 0.458 µM. Moreover, the GI50 is 1.39 µM with HS 578T breast, 1.51 µM in the assay on MDA-MB-231 breast, 5.94 µM in the assay on OVCAR-4 ovarian and 1.53 µM in the assay with MOLT-4 leukemia. Besides, the TGI is 10 µM in the assay with HCC-2998 colon; more than 100 µM in the assay with TK-10 renal; 2.1 µM in the assay with HT29 colon; more than 21.8 µM with SK-MEL-2 melanoma; 5.24 µM in the assay on SK-MEL-28 melanoma; 33.4 µM with HCT-15 colon. The TGI is 6.37 µM in the assay on HS 578T breast, 31.1 µM in the assay on MDA-MB-231 breast, more than 100 µM with OVCAR-4 ovarian and more than 100 µM with MOLT-4 leukemia.

Turning to `Nc1ccc(C#Cc2ccccc2C#CCCCCO)cc1`, the GI50 with HCC-2998 colon was 16.6 µM; in the assay with TK-10 renal, 21.6 µM; in the assay on HT29 colon it was 13.3 µM; in the assay on SK-MEL-2 melanoma, 18.8 µM; in the assay on SK-MEL-28 melanoma, 9.31 µM; in the assay with HCT-15 colon, 15.3 µM. Also, the GI50 was 26.8 µM in the assay with HS 578T breast, 14 µM in the assay with MDA-MB-231 breast, 16.7 µM in the assay on OVCAR-4 ovarian and 16.5 µM in the assay with MOLT-4 leukemia. Moreover, the TGI in the assay with HCC-2998 colon amounted to 31.3 µM; in the assay on TK-10 renal, 46.5 µM; in the assay with HT29 colon it was 26.1 µM; with SK-MEL-2 melanoma, 37.1 µM; in the assay on SK-MEL-28 melanoma, 21.9 µM; in the assay on HCT-15 colon, 28.7 µM. In addition, the TGI in the assay on HS 578T breast is 64.7 µM; with MDA-MB-231 breast, 27.5 µM; with OVCAR-4 ovarian, 32.6 µM; with MOLT-4 leukemia, 35.1 µM.

With `Oc1c(C(Nc2ccccn2)c2ccccc2)ccc2cccnc12` (stereo not given), the TGI in the assay with HCC-2998 colon is more than 100 µM; in the assay with TK-10 renal, more than 25.9 µM; with HT29 colon, more than 86.5 µM; in the assay on SK-MEL-2 melanoma, more than 28.4 µM; in the assay on SK-MEL-28 melanoma, more than 100 µM; with HCT-15 colon, more than 100 µM. The TGI was more than 87.9 µM in the assay with HS 578T breast, 16.4 µM in the assay on MDA-MB-231 breast, 31.9 µM with OVCAR-4 ovarian and more than 25.4 µM in the assay with MOLT-4 leukemia.

Consider `COc1ccc2c3ccnc(C(F)(F)F)c3n(CCCCN)c2c1`, for which the GI50 was 5.23 µM in the assay on HCC-2998 colon; 7.06 µM in the assay with TK-10 renal; 4.01 µM in the assay on HT29 colon; 16.8 µM in the assay with SK-MEL-2 melanoma; 1.92 µM in the assay with SK-MEL-28 melanoma; 10.8 µM in the assay with HCT-15 colon. Further, the GI50 with HS 578T breast is 4.09 µM; in the assay on MDA-MB-231 breast, 8.12 µM; in the assay with OVCAR-4 ovarian, 11.7 µM; in the assay on MOLT-4 leukemia, 3.93 µM. Besides, the TGI in the assay with HCC-2998 colon amounted to 16.7 µM; in the assay with TK-10 renal, 19.3 µM; in the assay with HT29 colon it was 15.8 µM; in the assay on SK-MEL-2 melanoma, 35.7 µM; in the assay on SK-MEL-28 melanoma, 3.82 µM; in the assay with HCT-15 colon, 25 µM. Moreover, the TGI with HS 578T breast turned out to be 22.8 µM; in the assay with MDA-MB-231 breast it was 21.7 µM; in the assay with OVCAR-4 ovarian it was 25.5 µM; in the assay with MOLT-4 leukemia, 12.8 µM.

For `CN1CCN(Cc2ccc(NC(=O)c3cncc(C#Cc4ccc(N)nc4)c3)cc2C(F)(F)F)CC1`, the GI50 in the assay with HCC-2998 colon is 1.96 µM; in the assay with TK-10 renal, 1.63 µM; with HT29 colon it was 0.728 µM; in the assay with SK-MEL-2 melanoma, 0.363 µM; in the assay with SK-MEL-28 melanoma it was 1.47 µM; in the assay on HCT-15 colon it was 1.12 µM. Moreover, the GI50 was 0.486 µM with HS 578T breast, 0.634 µM in the assay with MDA-MB-231 breast, 0.46 µM in the assay with OVCAR-4 ovarian and 1.03 µM in the assay on MOLT-4 leukemia. In addition, the TGI in the assay with HCC-2998 colon is 6.96 µM; in the assay on TK-10 renal, 9.54 µM; with HT29 colon, 4.59 µM; in the assay with SK-MEL-2 melanoma, 1.36 µM; with SK-MEL-28 melanoma, 5.54 µM; with HCT-15 colon, 5.96 µM. For the same molecule, the TGI was 2.16 µM in the assay on HS 578T breast, 1.71 µM with MDA-MB-231 breast, 4.5 µM with OVCAR-4 ovarian and 6.82 µM in the assay with MOLT-4 leukemia.

The record behind these values is PubChem BioAssay (NCI).
